PMC6941404, “Pigmentosins from Gibellula sp. as antibiofilm agents and a new glycosylated asperfuran from Cordyceps javanica” (Beilstein Journal of Organic Chemistry, 2019)
In brackets after ≈: the same amount, converted by molar mass. Like-named read-outs stand apart in the source and are kept apart here.

How the values were obtained:
[1] = system: Pseudomonas aeruginosa PA14; test: Anti-biofilm activity, microtiter dish biofilm formation assay; format: cell-based; conditions: lowest concentration preventing biofilm formation by at least 50%, 24 h, NA = No activity
Description: (§1) The isolated compounds were also tested for their ability to interfere in the biofilm formation of Staphylococcus aureus DSM1104 and Pseudomonas aeruginosa PA14 [51]. The biofilm inhibition assay was performed in 96-well microtiter plates using the microtiter dish biofilm formation assay described by O’Toole, with minor modifications, as outlined in our recent publications. The antibiofilm activity is expressed as MIC values, which is defined as the lowest concentration of substance that prevents biofilm formation of a target microorganism by at least 50%. […]
(§2) Anti-biofilm activity assay
(§3) The determination of the ability of isolated compounds to prevent biofilm formation of S. aureus DSM1104 (ATCC25923) and P. aeruginosa PA148 was performed using the microtiter dish biofilm formation assay described by O’Toole9 with minor modification provided in our recent publications 1, 6, 10–14. The biofilm forming strains were enriched overnight in CASO medium with and without 4% glucose for S. aureus and P. aeruginosa , respectively. After incubation at 37 °C under shaking condition, the overnight cultures were adjusted to equal the turbidity of 0.5 McFarland standard using the assay medium. The assay was carried out in 96 -well tissue cultured -treated microplates (TPP®, Germany) for S. aureus and non-treated plates (Falcon®MicroTestTM, USA) for P. aeruginosa , in which 10 μ L of each compound (0.5 mg/m L) in six replicates were mixed together with 140 μ L of bacterial suspension. Methanol and CASO medium with and without 4% glucose were used as negative controls and tetracycline (100 μg/m L) as positive control. Plates were covered with a sterile adhesive porous paper (Kisker Biotech GmbH, Steinfurt, Germany) and incubated at 37 °C for 24 h.
(§4) After incubation, ba cterial biofilms were stained with 0.1% crystal violet solution (Sigma -Aldrich) following the protocol of O’Toole .9 Then, the biofilm was subsequently quantified using a microplate reader at 550 nm. 12 In the current study, the antibiofilm activity was expr essed as MIC value which was defined as the lowest concentration of substance that prevents the biofilm formation of a target microorganism by at least 50%. […]

[2] = system: Staphylococcus aureus DSM1104; test: as above; format: cell-based; conditions: S. aureus DSM1104 (ATCC25923); lowest concentration preventing biofilm formation by at least 50%; 24 h; NA = No activity
Description: as §1, §2, §3, §4

Cytotoxicity assay (MTT) = format: cell-based
Description: (§5) To evaluate the biological effects of compounds 1–6, various assays were carried out. The antimicrobial activity of the isolated compounds against Bacillus subtilis DSM10, Escherichia coli DSM498, Candida tenuis MUCL29892, and Mucor plumbeus MUCL49355 was determined as described by Kuephadungphan and co-workers. The nematicidal activity against Caenorhabditis elegans was investigated using a microtiter plate assay according to Helaly and co-workers, while the cytotoxicity was tested against murine fibroblast (L929) and human HeLa (KB3.1) cell lines according to Chepkirui and co-workers.
(§6) Biological activity screening of compounds 1–6 […]
The isolated compounds were tested for cytotoxic activity using the MTT (3 -(4,5-dimethylthiayol -2-yl)-2,5-diphenyltetrayolium bromide) method in 96 -well microtiter plates following the procedure previously described by Chepkirui et al.7 against th e cervix carcino ma cell line KB3.1 and the established mouse fibroblast cell line L929. The assay was kindly conducted by Wera Collisi, Department of Microbial Drugs, Helmholtz Centre of Infection Research, Germany. The tested cell lines were cultured in EBM -2 (Lonza) sup plemented with 10% fetal bovine serum (Gibco) under 10% CO2 at 37 °C. A 60 µL of serial dilutions from an initial stock (1 mg/mL) of the test compounds in MeOH was added to 120 µL aliquots of a cell suspension (50,000 cells/mL) in 96-well microplates.
After incubation for five days, 20 µL of MTT in phosphate buffered saline (PBS) were added to give a final concentration of 0.5 mg/mL. The plates were further incubated for two hours. The precipitate […]
of formazan crystals was centrifuged and the supernatant was then discarded. Each well was washed with 100 µL of PBS and 100 µL of isopropanol containing 0.4% hydrochloric acid were subsequently added in order to get the residual dissolved. The plates were gently shaken for 20 min before the absorbance at 590 nm was measured using an ELISA microplate reader (Victor). The concentration, at which the growth of cells was inhibited to 50% of the control (IC50), was obtained from the dose - response curves. Methanol was used as negative control while epothilone A and B wer e used as positive controls for L929 and KB3.1 cell lines, respectively. […]
After incubation at 37 °C under shaking condition, the overnight cultures were adjusted to equal the turbidity of 0.5 McFarland standard using the assay medium. The assay was carried out in 96 -well tissue cultured -treated microplates (TPP®, Germany) for S. aureus and non-treated plates (Falcon®MicroTestTM, USA) for P. aeruginosa , in which 10 μ L of each compound (0.5 mg/m L) in six replicates were mixed together with 140 μ L of bacterial suspension. Methanol and CASO medium with and without 4% glucose were used as negative controls and tetracycline (100 μg/m L) as positive control. Plates were covered with a sterile adhesive porous paper (Kisker Biotech GmbH, Steinfurt, Germany) and incubated at 37 °C for 24 h.
After incubation, ba cterial biofilms were stained with 0.1% crystal violet solution (Sigma -Aldrich) following the protocol of O’Toole .9 Then, the biofilm was subsequently quantified using a microplate reader at 550 nm. […]
aeruginosa PA14 were further evaluated for their bacteriostatic and bactericidal activit ies. The assay was performed in the Bioscreen 100 -well Honeycomb plate according to the protocol described by Yuyama et al. 13 where the MIC values were determined. […]

Bacillus subtilis DSM10 = test: Antimicrobial activity, broth microdilution MIC; format: cell-based; conditions: Bacillus subtilis DSM10, 24 h, range 2.34–300 μg/mL, NA = No activity
Description: as §5
(§7) Biological activity screening of compounds 1–6
(§8) Antimicrobial activity assay
(§9) The minimum inhibitory concentration (MIC) of compounds 1–6 was determined using the broth microdilution method according to Kuephadungphan et al.4 against B. subtilis DSM10, E. coli DSM498, C. tenuis MUCL29892 and M. plumbeus MUCL49355. Stock suspension of each bacterium and yeast (100 μL) was transferred to 100 mL of EBS medium and YM medium, respectively.
(§10) Suspensions of B. subtilis and C. tenuis were incubated on a rotary shaker at 30 °C for 18–24 h while E. coli was grown at 37 °C for 24 h. After incubation, the suspension was adjusted to a concentration of 6.7 × 10^5 cells/mL using a hemacytometer. The spore suspension of M. plumbeus was prepared at a concentration of 6.7 × 10^5 conidia/mL using YM medium. The determination of MIC was performed in a 96-well microtiter plate. The compounds dissolved in methanol at a concentration of 4.5 mg/mL (20 μL) were transferred to the first row of the plate. Standard antibiotics including ciprofloxacin (bacteria) and nystatin (yeast and fungus), and methanol were used as positive and negative controls, respectively. Inoculum suspension (280 μL) was added to the first row containing compounds and 150 μL were added to the rest. The solutions were then serially 2-fold diluted to 8 concentrations ranging from 2.34–300 μg/mL. Plates were incubated at 30 °C on a microplate-vibrating shaker for 24 h for bacteria and 48 h for yeast and filamentous fungus. […]
(§11) The assay was kindly conducted by Wera Collisi, Department of Microbial Drugs, Helmholtz Centre of Infection Research, Germany. The tested cell lines were cultured in EBM -2 (Lonza) sup plemented with 10% fetal bovine serum (Gibco) under 10% CO2 at 37 °C. A 60 µL of serial dilutions from an initial stock (1 mg/mL) of the test compounds in MeOH was added to 120 µL aliquots of a cell suspension (50,000 cells/mL) in 96-well microplates.
(§12) After incubation for five days, 20 µL of MTT in phosphate buffered saline (PBS) were added to give a final concentration of 0.5 mg/mL. The plates were further incubated for two hours. The precipitate

Escherichia coli DSM498 = test: Antimicrobial activity, broth microdilution MIC; format: cell-based; conditions: 24 h, NA = No activity
Description: as §5, §7, §8, §9, §10, §11, §12

[3] = design: method as in PMID 2143181; conditions: cited from earlier work
Candida tenuis MUCL29892 = test: Antimicrobial activity, broth microdilution MIC; format: cell-based; conditions: Candida tenuis MUCL 29892; 48 h; NA = No activity
Description: as §5, §7, §8, §9, §10, §11, §12

Mucor plumbeus MUCL49355 = test: Antimicrobial activity, broth microdilution MIC; format: cell-based; conditions: Mucor plumbeus MUCL 49355; 48 h; NA = No activity
Description: as §5, §7, §8, §9, §10, §11, §12

Caenorhabditis elegans = test: Nematicidal activity microwell plate assay; format: cell-based; conditions: 18 h, tested 100, 50, 20 and 10 μg/mL, NA = No activity
Description: as §5, §6
Nematicidal activity assay
The nematicidal activity of the new compounds against C. elegans was performed by a microwell plate assay reported by Stadler et al.5 with slightly modification. The modified protocol was reported by Helaly et al.6 The studied compounds were dissolved with methanol to a concentration of […] and subsequently diluted 1:100 with sterile distilled water. […] Finally, the nematodes were counted using a Malassez counting chamber and further adjusted to obtain a concentration of 500 nematodes/mL with sterile distilled water. […] The plate was incubated at 20 °C in the dark and nematicidal activity was recorded after 18 h of incubation. The nematodes were counted under a stereo microscope. […]

CN(C)[C@@H]1C(O)=C(C(N)=O)C(=O)[C@@]2(O)C(O)=C3C(=O)c4c(O)cccc4[C@@](C)(O)[C@H]3C[C@@H]12 [Tetracycline, tetracycline, reference compound]
Anti-biofilm activity (MIC) PA [1]: 1.9 µg/mL | Anti-biofilm activity (MIC) SA [2]: 1.9 µg/mL

CCCC[C@H](C)[C@@H]1CC(=O)N[C@@H](Cc2ccc(O)cc2)C(=O)N[C@@H](C)C(=O)N[C@H](CC(C)C)C(=O)O1 [Beauverolide N (4), beauverolide N]
IC50 at 5 days (Cytotoxicity assay (MTT); human, KB3.1 cells (HeLa, cervix carcinoma cell line), HeLa cell line KB3.1, MTT, five days, NA = No activity, a = Proliferation inhibition, no altered or dead cells, read-out: Cytotoxicity (IC50) KB3.1): 16 µg/mL (≈ 31.8 µM) | Anti-biofilm activity (MIC) SA [2]: 250 µg/mL

C/C(=C\c1csc(C)n1)[C@@H]1C[C@@H]2O[C@@H]2CCC[C@H](C)[C@H](O)[C@@H](C)C(=O)C(C)(C)[C@@H](O)CC(=O)O1 [Epothilone A, epothilone A]
IC50 at 5 days (Cytotoxicity assay (MTT); mouse, Murine fibroblast cell line L929, five days, NA = No activity): 0.0038 µg/mL (≈ 0.0077 µM)

O=C(O)c1cn(C2CC2)c2cc(N3CCNCC3)c(F)cc2c1=O [Ciprofloxacin, ciprofloxacin, reference compound]
MIC (Bacillus subtilis DSM10; read-out: Antimicrobial activity (MIC) BS): 0.52 µg/mL (≈ 1.57 µM) | MIC (Escherichia coli DSM498; read-out: Antimicrobial activity (MIC) EC): 0.52 µg/mL (≈ 1.57 µM)

C/C=C/C=C/[C@H]1Cc2cc(O)cc(O)c2O1 [asperfuran]
Antifungal activity [3]: moderately antifungal

C[C@@H]1[C@H](O)[C@@H](C)/C=C/C=C/CC/C=C/C=C/C=C/C=C/C(O[C@H]2O[C@H](C)[C@@H](O)[C@H](N)[C@@H]2O)CC2O[C@](O)(CC(O)C(O)CCC(O)CC(O)CC(O)CC(=O)O[C@H]1C)CC(O)C2C(=O)O (some centres unmarked) [Nystatin, nystatin, reference compound]
Antimicrobial activity (MIC) CT (Candida tenuis MUCL29892): 0.52 µg/mL | Antimicrobial activity (MIC) MP (Mucor plumbeus MUCL49355): 8.33 µg/mL

CCCC[C@H](C)[C@@H]1CC(=O)N[C@@H](Cc2ccccc2)C(=O)N[C@@H](C)C(=O)N[C@H](CC(C)C)C(=O)O1 [Beauverolide I (5), beauverolide I]
IC50 at 5 days (Cytotoxicity assay (MTT); human): 20 µg/mL (≈ 41 µM)

ivermectin [reference compound]
Nematicidal CE (Caenorhabditis elegans): 7.5 µg/mL

C/C(=C\c1csc(C)n1)[C@@H]1C[C@@H]2O[C@]2(C)CCC[C@H](C)[C@H](O)[C@@H](C)C(=O)C(C)(C)[C@@H](O)CC(=O)O1 [Epothilone B, epothilone B, reference compound]
IC50 at 5 days (Cytotoxicity assay (MTT); human, HeLa cell line KB3.1, MTT, five days, NA = No activity, a = Proliferation inhibition, no altered or dead cells, read-out: Cytotoxicity (IC50) KB3.1): 0.00022 µg/mL (≈ 0.000433 µM)

CC=CC=CC1Cc2cc(OC3OC(CO)C(OC)C(O)C3O)cc(O)c2O1 (centres unmarked) [Glucoasperfuran (3), glycoasperfuran]
Antimicrobial activity (MIC) BS (Bacillus subtilis DSM10): devoid of activity | Antimicrobial activity (MIC) CT (Candida tenuis MUCL29892): devoid of activity | Antimicrobial activity (MIC) EC (Escherichia coli DSM498): devoid of activity | Antimicrobial activity (MIC) MP (Mucor plumbeus MUCL49355): devoid of activity
